The structures appear in SMILES notation.

The experiment concerns Cryptosporidium parvum. The experiment can be described thus: MMV: Cryptosporidium parvum oocysts (Iowa Strain) were prepared for use by treatment with 10 mM HCl (37 degrees C, 10 min) followed by 2 mM sodium taurocholate in phosphate-buffered saline (PBS) with Ca2+ and Mg2+ (16 degrees C, 10 min) in order to stimulate excystation. The high-throughput screen was carried out by inoculating >90% confluent human ileocecal adenocarcinoma (HCT-8) cells (ATCC) with ~5.5 x 10^3 primed oocysts per well. Experimental compounds or DMSO (vehicle) were added three hours after infection, and cells were incubated for 48 hours. The format is functional.
A word on the Inhibition: it is the relative decrease from the control value, in per cent. For the molecule `COc1ccc(-c2cc3c(nn2)-c2ccccc2C3=O)cc1`, the Inhibition is on record as -19.28%.

For the molecule `COc1ccc(C2c3ccc4ccccc4c3Oc3ncn(CCCN(C)C)c(=N)c32)cc1` (stereo not drawn), the Inhibition is 9.024%.

As for `c1ccc(/C2=N/c3ccccc3/N=C(/c3ccccc3)c3ccccc32)cc1`, the Inhibition came out at 8.997%.

With `CCOC(=O)c1c(C)n(-c2ccccc2)c2ccc(OC(=O)c3cc(OC)c(OC)c(OC)c3)cc12`, the Inhibition was determined as 4.591%.

Turning to `COc1ccc(C2c3ccc4ccccc4c3Oc3ncn(CCCn4ccnc4)c(=N)c32)cc1OC` (stereo not drawn), the Inhibition was found to be 5.542%.

As for `CN(N=O)C1=C(NC2CCCCC2)C(=O)c2ccccc2C1=O`, the Inhibition is on record as -6.459%.

Consider `CCOC(=O)C1=C(C)N=c2sc(=Cc3ccccc3O)c(=O)n2C1c1ccc(OC)c2ccccc12` (stereo not drawn), for which the Inhibition was -32.82%.

With `Cc1ccc(C(=O)c2oc3ccc4c(C)cc(=O)oc4c3c2C)cc1`, the Inhibition came to 28.07%.

As to `COc1ccc(CN2CCCC(C(=O)c3ccc(C(F)(F)F)cc3)C2)c(O)c1` (stereo not drawn), the Inhibition is listed as -4.732%.

As to `CCCCCCc1cc2cc(-c3csc(C=Cc4ccccc4)n3)c(=O)oc2cc1O`, the Inhibition is on record as 10.86%.

Regarding `O=C(NC1CCCCC1)C(c1cccs1)N(CCc1ccccc1)C(=O)c1ccco1` (stereo not drawn), the Inhibition is -24.45%.

Turning to `CC(Oc1ccc(NC(=O)c2cccs2)cc1)C(=O)c1ccc(Cl)cc1` (stereo not drawn), the Inhibition is given as 19.15%.

As for `Cl.c1ccc2c(NCCCCCCNc3c4c(nc5ccccc35)CCCC4)c3c(nc2c1)CCCC3`, the Inhibition is recorded as 13.18%.

Take `Brc1ccc(Nc2nc3ccccc3nc2Nc2ccc(Br)cc2)cc1`: the Inhibition is given as -31.05%.

For the molecule `O=C(NC1CCN(Cc2ccccc2)CC1)c1cc(C(=O)NC2CCN(Cc3ccccc3)CC2)cc(C(=O)NC2CCN(Cc3ccccc3)CC2)c1`, the Inhibition was 0.9409%.

`Nc1ccc(-c2nc3cc(Cc4ccc5[nH]c(-c6ccc(N)cc6)nc5c4)ccc3[nH]2)cc1`: the Inhibition is on record as -51.86%.

In the case of `COc1ccc(-c2cn3c(C(=O)Nc4ccccc4Cl)c(-c4ccccc4)c4c3n2CCCC4)cc1`, the Inhibition was 34.31%.

Consider `CCCCOC(=O)c1ccc(Nc2cc(C)nc3ccc(OC)cc23)cc1`, for which the Inhibition was 12.32%.

For the molecule `Cc1cc(Nc2ccc(OCc3ccccc3)cc2)nc2cc(O)ccc12`, the Inhibition was -18.86%.

Regarding `CCN(CC)CCNc1ccnc2cc3ccccc3cc12.O=P(O)(O)O`, the Inhibition stood at 3.908%.

As for `N=c1c2ccccc2nnn1-c1cccc(C(F)(F)F)c1`, the Inhibition stood at 6.889%.

As to `COc1cc(-c2nc(-c3ccc(Sc4ccccc4)cc3)c(-c3ccccc3)[nH]2)cc(OC)c1O`, the Inhibition is -39.67%.

As for `O=c1cc(NC2CCN(CCCc3ccccc3)CC2)c2cc(Cl)ccc2o1`, the Inhibition is -2.261%.

Turning to `COc1ccc(C=C2SC(Nc3ccc(F)cc3)=NC2=O)c(OC)c1`, the Inhibition stood at 36.03%.

As for `COc1ccc(C2NCCc3c2[nH]c2ccccc32)cc1CN1CCN(c2ccc(F)cc2)CC1.Cl` (stereo not drawn), the Inhibition was -2.167%.

For the molecule `OC(Cn1nnc2ccccc21)Cn1c2ccc(Br)cc2c2cc(Br)ccc21` (stereo not drawn), the Inhibition is given as -11.24%.

With `CCOc1ccc(-n2cc(-c3ccccc3)c3c(SCc4cc(C)ccc4C)ncnc32)cc1`, the Inhibition is given as -2.262%.

Turning to `Cc1ccc(C)c(Cn2c(N3CCC(C(=O)NCc4cccs4)CC3)nc3ccccc32)c1`, the Inhibition was -14.3%.

In the case of `Cc1ccccc1OCCSc1nc2ccc(NC(=O)c3cccs3)cc2s1`, the Inhibition is recorded as -27.25%.

Regarding `CC1CCN(Cc2c(O)ccc3cc(-c4nc5ccccc5s4)c(=O)oc23)CC1`, the Inhibition is on record as -9.182%.

For `Cc1ccc2cc3c(N)c4c(C)ccc(C)c4nc3nc2c1`, the Inhibition is recorded as -22.09%.

Turning to `CCOc1cc2c(cc1OCC)C(c1cc(Cl)ccc1O)NCC2` (stereo not drawn), the Inhibition is given as -2.297%.

As for `COc1ccc(C2C(C(=O)Nc3cccc(OC)c3)c3ccccc3C(=O)N2C2CCCCC2)cc1` (stereo not drawn), the Inhibition was -43.91%.

For the molecule `c1ccc2c(NCCc3c[nH]c4ccccc34)c3ccccc3nc2c1`, the Inhibition worked out at 19.05%.

As for `CCN(CC)CCCNc1ccnc2cc3ccccc3cc12`, the Inhibition is reported as -47.31%.

For `CCOC(=O)c1cnc2c(C)cccc2c1Nc1ccc(C(C)=O)cc1`, the Inhibition is listed as -10.99%.

On to `O=C(Nc1ccc(-c2nc3cc4ccccc4cc3[nH]2)cc1)c1cccc(Br)c1`, for which the Inhibition was -10.01%.

As to `Cc1ccc(-c2nc3ccccc3o2)cc1NCc1cc(Cc2ccccc2)ccc1O`, the Inhibition came to 20.55%.

Take `Cc1ccc(C2CC(C(F)(F)F)n3nc(C(=O)N4CCN(C(c5ccccc5)c5ccccc5)CC4)cc3N2)cc1` (stereo not drawn): the Inhibition is -21.96%.

Regarding `Cc1ccc2nc(C)cc(Nc3cccc(C(F)(F)F)c3)c2c1.Cl`, the Inhibition turned out to be 53.25%.

For `COc1cccc(C(=O)NC(c2ccc(C)cc2)c2cc(Cl)c3cccnc3c2O)c1` (stereo not drawn), the Inhibition is 59.18%.

With `COc1ccc(C(O)(CCC(C)C)C(CN2CCOCC2)c2ccc(Cl)cc2)cc1.Cl` (stereo not drawn), the Inhibition is -51.44%.

Regarding `COc1ccc(-c2cc(=O)oc3c4c(ccc23)OCN(Cc2ccc(F)cc2)C4)cc1`, the Inhibition is recorded as -0.4054%.

With `CCCOCc1cc(CN2CCN(c3cccc(Cl)c3)CC2)c(O)c2ncccc12`, the Inhibition came out at 58.2%.

On to `O=C(Cc1ccccc1)NC(c1ccc(Cl)cc1)c1c(O)ccc2ccccc12` (stereo not drawn), for which the Inhibition was -13.28%.

Turning to `CCOc1ccc2c(c1)CN(Cc1ccc(Cl)cc1)CO2`, the Inhibition is -64.93%.

On to `c1ccc(CNc2nc(Nc3ccccc3)nc3ccccc23)cc1`, for which the Inhibition amounted to 87.13%.

On to `COc1ccc(C(=O)NC(c2ccccc2Cl)c2cc(Cl)c3cccnc3c2O)cc1` (stereo not drawn), for which the Inhibition is listed as 32.62%.

As to `Cc1cccc(N2C(=O)C3C(C2=O)C2(c4ccccc4)C(=O)C3(c3ccccc3)C(c3ccc4c(c3)OCO4)=C2c2ccc3c(c2)OCO3)c1` (stereo not drawn), the Inhibition stood at 1.02%.

Take `CCCc1c(C)nc2ccc(Br)cc2c1O`: the Inhibition is reported as -49.14%.

`COc1ccc(CCNC(=O)c2cc(S(=O)(=O)N3CC(C)CC(C)C3)ccc2Sc2ccc(F)cc2)cc1OC` (stereo not drawn): the Inhibition was determined as 16.29%.

In the case of `Cc1ccc(F)cc1NC(=O)c1cc(Cl)ccc1Nc1ccccc1`, the Inhibition is reported as -36.44%.

Take `CCOc1ccc(Nc2c3ccccc3nc3ccccc23)cc1.Cl`: the Inhibition turned out to be 26.95%.

Turning to `CCCCCCc1cc2cc(-c3nc4ccccc4[nH]3)c(=Nc3ccccc3C)oc2cc1O`, the Inhibition is listed as -3.461%.

`CCCCCCC(O)(c1ccc(F)cc1)C(CN1CCOCC1)c1ccccc1.Cl` (stereo not drawn): the Inhibition is given as 35.55%.

`COc1cc(OC)cc(N2C(=O)N(Cc3ccc(C(C)(C)C)cc3)c3ccccc3S2(=O)=O)c1`: the Inhibition is recorded as -14.44%.

On to `CCOc1c(Br)cc(C2C(C(=O)OC)=CN(C)C=C2C(=O)OC)cc1OC`, for which the Inhibition is -4.752%.

On to `COc1ccc2sc(N(Cc3cccnc3)C(=O)c3ccc(C#N)cc3)nc2c1`, for which the Inhibition amounted to 39.49%.

Turning to `CC1CC2=C(CC1CNCCCN(C)C)C(C)(C)CCC2` (stereo not drawn), the Inhibition stood at 42.26%.

As for `CN(C)c1ccc(N=Cc2ccc(N3CCOCC3)cc2)cc1`, the Inhibition is recorded as -8.003%.

As for `COc1ccccc1N1C(=N)SC(=Cc2ccc(OCc3ccccc3F)cc2)C1=O`, the Inhibition is recorded as -8.054%.

Consider `CCOC(=O)c1c[nH]c2c(CC)cccc2c1=O`, for which the Inhibition was found to be 0.8782%.

`CCCCc1c(CCC)c(=N)c2ccccc2n1C.I`: the Inhibition is 11.94%.

The record behind these values is ChEMBL document CHEMBL3137356, “MMV Box Cryptosporidium parvum screening set”.
